Patent US20230009626A1 (ICHNOS SCIENCES S.A., priority 2018, published 2023)

Target: HPK1 (MAP4K1) (Homo sapiens, UniProt Q92918)
Assay: FRET Assay for HPK1 (MAP4K1): one step binding assay, displacement of labeled tracer
Conditions: for inhibition at 1 µM: 1 μM compound; for inhibition at 1 µM / inhibition at 10 µM: FRET ratio 665/620, percent of control; for inhibition at 10 µM: 10 μM compound; for IC50: dose response curve, nonlinear regression
Method in brief: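 Percent inhibition at 1.0 and 10.0 μM and IC50 by nonlinear regression were derived from loss of FRET signal versus control. The signal runs from Eu-anti-GST antibody (4 nM) bound to 10 nM HPK1 kinase to Alexa Fluor 647 Kinase Tracer 222 (20 nM), added after a 15-min on-ice compound pre-incubation. Binding then proceeded 1 h at room temperature in HEPES pH 7.5 buffer with 10 mM MgCl2, 1 mM EGTA, 0.01% Brij-35 and 3% DMSO.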

Sequence of HPK1 (MAP4K1) (Q92918 whole entry): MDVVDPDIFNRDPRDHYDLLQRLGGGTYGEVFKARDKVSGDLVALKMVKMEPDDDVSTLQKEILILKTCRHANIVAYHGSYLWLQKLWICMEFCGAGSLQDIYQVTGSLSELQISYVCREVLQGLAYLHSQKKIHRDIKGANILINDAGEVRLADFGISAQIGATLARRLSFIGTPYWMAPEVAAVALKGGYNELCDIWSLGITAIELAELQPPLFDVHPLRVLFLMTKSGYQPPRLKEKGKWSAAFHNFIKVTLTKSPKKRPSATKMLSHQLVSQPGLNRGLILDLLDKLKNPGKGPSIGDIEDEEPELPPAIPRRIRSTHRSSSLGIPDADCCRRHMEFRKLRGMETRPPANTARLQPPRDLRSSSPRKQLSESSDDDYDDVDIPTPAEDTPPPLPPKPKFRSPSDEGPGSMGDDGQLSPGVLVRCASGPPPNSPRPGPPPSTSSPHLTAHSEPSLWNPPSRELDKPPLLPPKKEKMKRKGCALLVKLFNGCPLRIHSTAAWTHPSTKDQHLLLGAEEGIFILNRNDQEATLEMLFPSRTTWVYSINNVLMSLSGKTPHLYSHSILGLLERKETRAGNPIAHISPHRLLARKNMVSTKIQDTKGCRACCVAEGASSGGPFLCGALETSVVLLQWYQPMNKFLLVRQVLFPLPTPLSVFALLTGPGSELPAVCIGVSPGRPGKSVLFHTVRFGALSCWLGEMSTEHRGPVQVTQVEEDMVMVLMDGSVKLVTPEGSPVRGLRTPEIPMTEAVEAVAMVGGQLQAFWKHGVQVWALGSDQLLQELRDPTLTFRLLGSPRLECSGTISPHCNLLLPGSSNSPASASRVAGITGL

C/C(Nc1ccn(C)n1)=C1/C(=O)Nc2cccc(-c3cnccc3C)c21 [Example 157, (Z)-3-(1-((1-Methyl-1H-pyrazol-3-yl)amino)ethylidene)-4-(4-methylpyridin-3-yl)indolin-2-one]
inhibition at 1 µM: 54.5% | inhibition at 10 µM: 66.5%

C/C(Nc1cnn(C)c1)=C1/C(=O)Nc2cnc(-c3cccnc3C)cc21 [Example 158, (Z)-3-(1-((1-Methyl-1H-pyrazol-4-yl)amino)ethylidene)-5-(2-methylpyridin-3-yl)-1H-pyrrolo[2,3-c]pyridin-2(3H)-one]
inhibition at 1 µM: 74.7% | inhibition at 10 µM: 91.1% | IC50: 0.1 to 0.5 µM

C/C(Nc1cnn(C)c1)=C1/C(=O)Nc2cccc(-c3cnccc3C)c21 [Example 159, (Z)-3-(1-((1-Methyl-1H-pyrazol-4-yl)amino)ethylidene)-4-(4-methylpyridin-3-yl)indolin-2-one]
inhibition at 1 µM: 62.8% | inhibition at 10 µM: 87.4% | IC50: > 0.5 µM

C/C(Nc1cnn([C@H](C)C#N)c1)=C1/C(=O)Nc2cnc(-c3cnccc3C)cc21 [Example 160, (R,Z)-2-(4-((1-(5-(4-Methylpyridin-3-yl)-2-oxo-1H-pyrrolo[2,3-c]pyridin-3(2H)-ylidene)ethyl)amino)-1H-pyrazol-1-yl)propanenitrile]
inhibition at 1 µM: 85% | inhibition at 10 µM: 78.4% | IC50: < 0.05 µM

C/C(Nc1cnn(C)c1)=C1/C(=O)Nc2ccc(-c3cnccc3C)cc21 [Example 161, (Z)-3-(1-((1-Methyl-1H-pyrazol-4-yl)amino)ethylidene)-5-(4-methylpyridin-3-yl)indolin-2-one]
inhibition at 1 µM: 81.2% | inhibition at 10 µM: 81% | IC50: < 0.05 µM

C/C(Nc1ccn(C)n1)=C1/C(=O)Nc2cnc(-c3cccnc3C)cc21 [Example 162, (Z)-3-(1-((1-Methyl-1H-pyrazol-3-yl)amino)ethylidene)-5-(2-methylpyridin-3-yl)-1H-pyrrolo[2,3-c]pyridin-2(3H)-one]
inhibition at 1 µM: 76.2% | inhibition at 10 µM: 92.9% | IC50: 0.05 to 0.1 µM

C/C(Nc1ncn(C)n1)=C1/C(=O)Nc2cnc(-c3cnccc3C)cc21 [Example 163, (Z)-3-(1-((1-Methyl-1H-1,2,4-triazol-3-yl)amino)ethylidene)-5-(4-methylpyridin-3-yl)-1H-pyrrolo[2,3-c]pyridin-2(3H)-one]
inhibition at 1 µM: 77.3% | inhibition at 10 µM: 81.5% | IC50: < 0.05 µM

C/C(Nc1cnn(C)c1)=C1/C(=O)Nc2cnc(-c3c(C)cccc3F)cc21 [Example 164, (Z)-5-(2-Fluoro-6-methylphenyl)-3-(1-((1-methyl-1H-pyrazol-4-yl)amino)ethylidene)-1H-pyrrolo[2,3-c]pyridin-2(3H)-one]
inhibition at 1 µM: 60.9% | inhibition at 10 µM: 75.2% | IC50: 0.05 to 0.1 µM

C/C(Nc1cnn(CC[C@@H](C)O)c1)=C1/C(=O)Nc2cnc(-c3cnccc3C)cc21 [Example 165, (R,Z)-3-(1-((1-(3-Hydroxybutyl)-1H-pyrazol-4-yl)amino)ethylidene)-5-(4-methylpyridin-3-yl)-1H-pyrrolo[2,3-c]pyridin-2(3H)-one]
inhibition at 1 µM: 79.3% | inhibition at 10 µM: 71.8% | IC50: < 0.05 µM

C/C(Nc1cnn(CCC(C)(C)O)c1)=C1/C(=O)Nc2cnc(-c3cnccc3C)cc21 [Example 166, (Z)-3-(1-((1-(3-Hydroxy-3-methylbutyl)-1H-pyrazol-4-yl)amino)ethylidene)-5-(4-methylpyridin-3-yl)-1H-pyrrolo[2,3-c]pyridin-2(3H)-one]
inhibition at 1 µM: 62.9% | inhibition at 10 µM: 75.7% | IC50: < 0.05 µM

C/C(Nc1cnn([C@@H](C)C#N)c1)=C1/C(=O)Nc2cnc(-c3cnccc3C)cc21 [Example 167, (S,Z)-2-(4-((1-(5-(4-Methylpyridin-3-yl)-2-oxo-1H-pyrrolo[2,3-c]pyridin-3(2H)-ylidene)ethyl)amino)-1H-pyrazol-1-yl)propanenitrile]
inhibition at 1 µM: 69.2% | inhibition at 10 µM: 67.5% | IC50: < 0.05 µM
